What was measured:
[1] = physchem
[2] = octanol/water partition coefficient

## CN(CCCCC[C@@H]1Cc2cc(O)ccc2[C@@H]2[C@@H]1[C@@H]1CC[C@H](O)[C@@]1(C)C[C@@H]2F)CCCSCCCC(F)(F)C(F)(F)F [antiestrogen 1, 11β-fluoro-7α-{5-[N-methyl-N-3-(4,4,5,5,5-pentafluoropentylthio)propylamino]pentyl}estra-1,3,5(10)-triene-3,17β-diol]
[1]
  logP: 5.8

## CN(CCCCCCC(F)(F)C(F)(F)C(F)(F)C(F)(F)F)CCCCC[C@@H]1Cc2cc(O)ccc2[C@@H]2[C@@H]1[C@@H]1CC[C@H](O)[C@@]1(C)C[C@@H]2F [antiestrogen 2, 11β-fluoro-7α-{5-[methyl-(7,7,8,8,9,9,10,10,10-nonafluorodecyl)amino]pentyl}estra-1,3,5(10)-triene-3,17β-diol]
[2]
  logP: 7.8
